This note sets out measurements from PubChem BioAssay (NCI).

Common to all, as to test: NCI tumour cell line growth inhibition, 48 h
Test [1] has as its system DLD-1 colon.
Test [2] deals with DMS 114 small cell lung.
Test [3] relates to KM20L2 colon.
In test [4] the test system is SNB-19 CNS.
For test [5], the system named is NCI-H23 lung.
In test [6] the test system is OVCAR-4 ovarian.
Test [7] deals with IGROV1 ovarian.
The test system of test [8] is SN12C renal.
The test system of test [9] is ACHN renal.
The subject of test [10] is SK-MEL-28 melanoma.
For test [11], the system named is M19-MEL melanoma.
The test system of test [12] is MDA-MB-435.

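Test compounds were applied to cells in 96-well plates for 48 hours at 5 doses. TGI is the concentration that stops growth completely.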 Where only a bound is given, the exact number is not on record here.

For the molecule `O=C(NC12CC3CC(CC(C3)C1)C2)C(=O)c1c[nH]c2ccc(Br)cc12`, the TGI in test [1] was 89 µM; in test [2], greater than 100 µM; in test [3] it was greater than 100 µM; in test [4], 95.6 µM; in test [5] it was greater than 100 µM; in [6], 35.5 µM. The TGI in test [7] was greater than 100 µM; in [8] it was 61.2 µM; in test [9], greater than 100 µM; in test [10], greater than 100 µM.
Consider `COc1cc(N)c2[nH]c3c(C)ccc(C)c3c2c1`, for which the TGI in test [1], in test [2], in [4], in test [6], in test [8] and in [9] was greater than 100 µM each time. For the same molecule, the TGI in test [11] and in test [10] was greater than 100 µM in each case.
Consider `N#CNC(=NCc1ccccc1)NCCc1c[nH]c2ccccc12`, for which the TGI in test [1], in [2], in test [3], in test [4], in [5] and in test [6] was greater than 100 µM throughout. In addition, the TGI in test [7], in test [8], in test [9], in test [11] and in test [10] was greater than 100 µM throughout.
Turning to `Cc1c(OCCCOc2ccc3c(=O)cc(-c4ccccc4)oc3c2C)ccc2c(=O)cc(-c3ccccc3)oc12`, the TGI in test [1], in test [2], in [3], in test [4], in test [5] and in test [7] was greater than 100 µM each time. The TGI in [11] and in test [10] was greater than 100 µM each time.
On to `NC(=O)COc1c(Br)cc(Br)cc1Br`, for which the TGI in test [1], in test [2], in [3], in test [4], in [5] and in test [6] was greater than 100 µM in each case. Besides, the TGI in test [8], in [9], in test [11] and in test [10] was greater than 100 µM throughout.
As for `CC(=O)Oc1c2c(c(OC(C)=O)c3c1n(C(C)=O)c1ccccc1n3C(C)=O)n(C(C)=O)c1ccccc1n2C(C)=O`, the TGI stood at 11.8 µM in test [1]; 7.96 µM in test [2]; 53.8 µM in test [4]; 25.7 µM in [5]; 40.5 µM in test [6]; 19.3 µM in test [8]. For the same molecule, the TGI in [9] is 25.4 µM; in test [11], 14.4 µM; in test [10], 16.8 µM.
With `COC1=CC(=O)C2C(C1=O)[C@@H]1c3ccccc3OC(C)(C)[C@H]21` (stereo not given in full), the TGI in [1] was 34 µM; in test [2], 40.8 µM; in test [3], 66.3 µM; in test [4], 97.7 µM; in [5], 36.9 µM; in test [6], 32.4 µM. Besides, the TGI turned out to be 27.2 µM in test [9], 34.5 µM in test [11] and 32.8 µM in [10].
In the case of `COc1cc(NS(C)(=O)=O)ccc1NCc1cnc2ccc3[nH]cccc3c12`, the TGI in [4] was greater than 89.1 µM; in test [5], 55 µM; in test [6], 65.7 µM; in test [12] it was 43.8 µM; in test [7], greater than 100 µM; in [8], 67.4 µM. Further, the TGI in [9] turned out to be 69.2 µM; in [10] it was 60.9 µM.
Regarding `Cc1nc2ccccc2c(=O)n1NC(=O)c1ccccc1[N+](=O)[O-]`, the TGI in test [4], in test [5], in test [6], in [12], in test [7] and in [8] was greater than 100 µM in each case. Further, the TGI in [9] and in test [10] was greater than 100 µM throughout.
For `C/C(=N/NC(=S)N(C)C)c1ccccc1O`, the TGI in test [4] is greater than 100 µM; in test [5] it was greater than 100 µM; in [6] it was greater than 85 µM; in test [12] it was greater than 100 µM; in [7], greater than 100 µM; in test [8], greater than 100 µM. Besides, the TGI in test [9] was greater than 76.5 µM; in test [10], greater than 100 µM.
Regarding `N=S(=O)(c1ccccc1)c1ccccc1`, the TGI in [1], in [2], in [3], in test [4], in [5] and in test [6] was greater than 100 µM throughout. Moreover, the TGI in test [7], in test [8], in [9], in [11] and in test [10] was greater than 100 µM each time.
With `Nc1nc(Nc2ccc(Cl)cc2)sc1C(=O)c1c[nH]c2ccccc12`, the TGI amounted to 38 µM in [4]; 27.8 µM in test [5]; 51.7 µM in test [6]; 47.5 µM in test [12]; 37.1 µM in test [7]; 29 µM in test [8]. The TGI was determined as 36.2 µM in [9] and 39.8 µM in test [10].
For the molecule `C=CCOC(=O)c1c(C)n([O-])c2cc(Cl)c(Cl)cc2[n+]1=O`, the TGI in test [4] is greater than 100 µM; in test [5], 30.3 µM; in test [6] it was 19.1 µM; in test [12], 41.2 µM; in test [7], 22.8 µM; in [8] it was 54.7 µM. The values for the TGI in test [9] and in test [10] were 50.9 µM and 30.3 µM, respectively.
As for `Cc1cc(Br)cc(C)c1NC(=O)C(=O)C(C(=O)c1ccncc1)C1OC(=O)c2ccccc21` (stereo not given), the TGI in [1], in [2], in test [3], in test [4], in test [5] and in [6] was greater than 100 µM in each case. Further, the TGI in [7], in test [8] and in [9] was greater than 100 µM each time.
For `CCOC(=O)C1(C#N)C2(C#N)C(N)=NC(ON=C(C)C)(ON=C(C)C)C12C#N` (stereo not given), the TGI in test [4], in test [5], in test [6], in test [12], in test [7] and in [8] was greater than 100 µM each time. Also, the TGI in test [9] and in [10] was greater than 100 µM in each case.
Regarding `Nc1ccc2nc(Nc3ccc(Cl)c(Cl)c3)cnc2c1`, the TGI in test [1] is greater than 100 µM; in [2] it was 24.5 µM; in [4], 38.7 µM; in test [5], 66.5 µM; in [6], 60.4 µM; in [8] it was 33 µM. For the same molecule, the TGI in test [9] came to 91.9 µM; in test [11], 39.2 µM; in [10], 36.8 µM.
Turning to `COc1cc(S(=O)(=O)Nc2ccc(-c3csc(N4C(=O)C(Cl)C4c4cccc(Oc5ccccc5)c4)n3)cc2)ccc1Cl` (stereo not given), the TGI is greater than 100 µM in test [4]; 36.9 µM in test [5]; 18.1 µM in test [6]; 39.7 µM in [12]; 7.45 µM in test [7]; 30.2 µM in test [8]. The TGI came out at 57.1 µM in test [9] and 79.8 µM in [10].
`N#C/C(=C/n1c(=S)[nH]c2ccccc21)C(N)=O`: the TGI in test [4], in test [5], in test [6], in test [12], in test [7] and in test [8] was greater than 100 µM throughout. Also, the TGI in test [9] and in test [10] was greater than 100 µM each time.
`COC1=CC(=O)c2c(cc(COP(N)(=O)N(CCCl)CCCl)n2C)C1=O` (stereo not given): the TGI in test [4] was found to be 14.2 µM; in test [5], 3.41 µM; in test [6], 16.3 µM; in test [12], 3.2 µM; in test [7], 2.66 µM; in test [8], 1.31 µM. For the same molecule, the TGI in [9] is 1.18 µM; in test [10], 8.83 µM.
Turning to `c1ccc2[nH]c3c(N=NC4=NCCN4)c4ccccc4c-3nc2c1`, the TGI was 68.9 µM in [4]; 23.3 µM in test [5]; greater than 100 µM in test [6]; 21.8 µM in test [12]; greater than 100 µM in test [7]; greater than 100 µM in [8]. Besides, the figures for the TGI in [9] and in test [10] were greater than 100 µM and 27.2 µM, respectively.
Take `O=C(/C=C/c1ccc(OCc2ccccc2)cc1)NCc1ccc(C(=O)NCc2ccccc2)cc1`: the TGI in test [4], in test [5], in test [6], in [12], in test [7] and in test [8] was greater than 100 µM each time. Also, the TGI in [9] and in [10] was greater than 100 µM in each case.
On to `CCOP(=O)(OCC)/C(C#N)=C\c1ccsc1`, for which the TGI in [1], in [2], in test [3], in test [4], in test [5] and in [6] was greater than 100 µM in each case. The TGI in test [8], in test [9], in [11] and in [10] was greater than 100 µM throughout.
As to `COc1cccc2c1C(=O)c1c(O)c3c(c(O)c1C2=O)C[C@@](O)(C(=O)CN1CCOCC1)C[C@@H]3OC1CC(N)C(O)C(C)O1` (stereo not given in full), the TGI is greater than 74.4 µM in test [1]; 21.8 µM in test [2]; 71.5 µM in test [3]; greater than 100 µM in test [4]; 20.9 µM in [5]; 69.6 µM in test [6]. Also, the TGI is greater than 90.6 µM in [7], greater than 100 µM in test [8], 18.1 µM in test [11] and 29.1 µM in [10].
On to `C=C1C2C[C@@H]3OC4CC5O[C@]6(CC5OC4C(C)C3OC(=O)CC3CC[C@@H]4OC5C7OC8C[C@](CCC9CC(=C)[C@H](CCC(C[C@H]1C)O2)O9)(OC7C4O3)O[C@@H]85)C[C@@H]1O[C@@]2(CC(C)[C@@H]3OC(CC(=O)CCO)C(O)C[C@@H]3O2)CC(C)[C@@H]1O6` (stereo not given in full), for which the TGI in test [1] was 1.24 µM; in test [3] it was less than 0.001 µM; in test [4], 0.816 µM; in test [5] it was less than 0.001 µM; in test [6], less than 0.001 µM; in [7] it was 1.37 µM. Moreover, the results for the TGI in [8] and in test [9] were 0.206 µM and 1.71 µM, respectively.
`CNC(=O)c1cc2nc3ccccc3c(=O)n2c2ccccc12`: the TGI in test [4], in [5], in test [6], in test [12], in test [7] and in test [8] was greater than 10 µM in each case. Besides, the TGI in test [9] and in test [10] was greater than 10 µM each time.
Consider `COc1ccc(C2S/C(=C\c3cccc(OC)c3)C(=O)N2NC(=O)Cc2ccccc2)cc1` (stereo not given), for which the TGI in test [1], in test [5], in test [6], in test [7], in test [8] and in test [9] was greater than 100 µM each time. Moreover, the TGI in [11] and in test [10] was greater than 100 µM throughout.
Consider `CC(=O)NNc1nc(C)c(C(/C=C/c2ccc([N+](=O)[O-])cc2)=N/NC(N)=O)s1`, for which the TGI in [4], in test [5], in test [6], in test [12], in test [7] and in test [8] was greater than 100 µM in each case. For the same molecule, the TGI in [9] and in [10] was greater than 100 µM each time.
Consider `COCCOC(C)C(=O)C(O)S(=O)(=O)O` (stereo not given), for which the TGI in test [4], in test [5], in test [6], in test [12], in test [7] and in [8] was greater than 100 µM in each case. The TGI in [9] and in test [10] was greater than 100 µM throughout.
Turning to `C/C(=N/NC(=S)Nc1cccc(Cl)c1)c1ccccn1`, the TGI was 16.9 µM in test [4]; 9.97 µM in [5]; 16.9 µM in [6]; 15.4 µM in test [12]; 9.29 µM in [7]; 7.04 µM in test [8]. In addition, the values for the TGI in test [9] and in test [10] were 8.13 µM and 16 µM, respectively.
